The target in the assay is bovine serum albumin (Bos taurus, UniProt P02769). The experiment in a line: Dialysis module, HF field effect in the frequency range 1 to 170 MHz on separation of phenylacetic acid (Embodiment 2). The note with it: BSA 60 mg/ml, toxin 1 mmol/l. The format is in vitro ADME. Here is the method: A dialysis module was set up for this purpose in that conventional hemofiltration capillaries were cast as loops using silicone into a syringe receiving neck. An aqueous albumin solution was introduced into the respective module in the presence of the uremic toxins phenylacetic acid, p-hydroxyhippuric acid and indoxyl sulfate. This solution was filtered with the dialysis module using a syringe pump for 10 min. […] The electromagnetic field is incremented by means of a high-frequency voltage source over a period of 10 minutes from […] in steps of 1 MHz. […] The effect of the HF field on the bond between the proteins and the uremic toxins was able to be evaluated by a comparison of the uremic toxin concentration in the resulting filtrates.
bovine serum albumin, sequence (P02769 25-607): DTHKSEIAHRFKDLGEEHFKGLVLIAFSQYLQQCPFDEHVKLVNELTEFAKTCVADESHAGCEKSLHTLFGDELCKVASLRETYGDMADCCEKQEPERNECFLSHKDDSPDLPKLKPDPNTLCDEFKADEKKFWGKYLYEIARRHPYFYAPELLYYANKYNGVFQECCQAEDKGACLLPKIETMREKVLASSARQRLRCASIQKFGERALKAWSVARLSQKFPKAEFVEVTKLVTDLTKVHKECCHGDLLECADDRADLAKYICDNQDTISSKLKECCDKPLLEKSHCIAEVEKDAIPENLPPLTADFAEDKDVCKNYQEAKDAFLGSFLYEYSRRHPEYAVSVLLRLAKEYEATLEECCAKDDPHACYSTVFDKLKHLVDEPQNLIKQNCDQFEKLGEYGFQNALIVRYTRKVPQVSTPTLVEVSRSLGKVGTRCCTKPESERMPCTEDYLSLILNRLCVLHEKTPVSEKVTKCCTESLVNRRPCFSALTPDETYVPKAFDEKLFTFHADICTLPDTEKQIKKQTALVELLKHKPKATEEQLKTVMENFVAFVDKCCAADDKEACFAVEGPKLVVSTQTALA
The HF field was varied in subbands of 10 MHz in the frequency range 1-170 MHz and was compared with a control experiment without an HF field.
The quantitative determination of the phenylacetic acid was performed using HPLC.
The results of the experiments are collected in FIG. 9. […] The effect was particularly pronounced at 54.6% in the subband from 110 to 120 MHz.

Take `O=C(O)Cc1ccccc1` [phenylacetic acid]: the “increase of separation rate under the influence of the HF field” value (HF field 1-170 MHz in subbands of 10 MHz vs control without HF field) is “at least 45.3%” and the “increase of separation rate under the influence of the HF field” value (subband from 110 to 120 MHz vs control without HF field) worked out at 54.6%.
